We go through one compound from paper PMC3919268, “Three-dimensional structure of a Streptomyces sviceus GNAT acetyltransferase with similarity to the C-terminal domain of the human GH84 O-GlcNAcase” (Acta Crystallographica Section D: Biological Crystallography, 2013).

The test has as its target T1, SsAT (acetyltransferase, accession No. ZP_05014886) (Streptomyces sviceus, UniProt B5HKU0).
T1 construct: gene SSEG_00025; recombinant N-terminally His-tagged SsAT, freshly purified
Description: ITC, pH […]°C, one-site model, n close to […]. Format: binding.

T1 sequence (B5HKU0 entry or part of it): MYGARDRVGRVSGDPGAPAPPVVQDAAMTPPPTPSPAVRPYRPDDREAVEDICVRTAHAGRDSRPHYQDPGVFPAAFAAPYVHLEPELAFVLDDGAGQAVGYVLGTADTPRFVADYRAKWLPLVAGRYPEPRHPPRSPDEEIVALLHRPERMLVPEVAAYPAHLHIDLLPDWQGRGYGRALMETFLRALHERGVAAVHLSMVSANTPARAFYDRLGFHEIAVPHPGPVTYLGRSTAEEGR

The compound `CC(=O)SCCNC(=O)CCNC(=O)[C@H](O)C(C)(C)COP(=O)(O)OP(=O)(O)OC[C@H]1O[C@@H](n2cnc3c(N)ncnc32)[C@H](O)[C@@H]1OP(=O)(O)O` [acetyl coenzyme A] had a Kd of 20 µM.
